Laboratory results: publication PMC11393638 (Regulatory toxicology and pharmacology : RTP, 2023)
Where two headings read alike, the source gives them in different places. Marks after values point to notes of the source that are not given here.

Legend:
[1] = test system: CYP2C19-expressing TK6 cells; experiment: TK and HPRT gene mutation assays in CYP2C19-expressing TK6 cells; type: cell-based, human; details: 4-h treatment
hamster V79 cells = details: without exogenous activation; ref Brambilla et al., 1989; cited from earlier work
TK6 cells [2] = experiment: In vitro micronucleus assay in TK6 cells; details: for %MN frequency with hamster liver S9: 4-h (2% S9) and 24-h (0.4% S9) treatments
TK6 cells [3] = details: up to 10 mM; 1% rat liver S9; ref Liviac et al., 2011; cited from earlier work
TK6 cells [4] = details: 2% Aroclor-1254-induced rat liver S9; ref Bernacki et al., 2016; cited from earlier work
TK6 cells [5] = experiment: TK and HPRT gene mutation assays in TK6 cells with hamster liver S9
[6] = test system: TK6 cells transduced with CYP3A4; details: up to 10 μM; 24 h
TK6 cells [7] = experiment: In vitro MultiFlow DNA damage assay in TK6 cells
TA1537 = details: 0–200 μg/plate
[8] = test system: CYP2C19-expressing TK6 cells; details: 4- and 24-h exposures
TA100 = details: for BMD50L / BMD50U: CES 0.5
tester strains = details: preliminary study; these concentrations and above
[9] = test system: TK6 cells transduced with CYP2C8; details: up to 10 μM; 24 h
[10] = test system: hepatocytes of Sprague-Dawley rats; details: single dose of 1000 mg/kg; ref Martelli et al., 1994; cited from earlier work
WP2 uvrA (pKM101) = details: 0–200 μg/plate
TA98 = details: for BMD50L / BMD50U: CES 0.5
TA1535 = details: for BMD50L / BMD50U: CES 0.5
[11] = test system: TK6 cells transduced with CYP2E1; details: up to 10 μM; 24 h
[12] = test system: primary human hepatocytes; details: 10 μM to 100 μM; 20-h exposure; ref Robbiano et al., 1991; cited from earlier work
[13] = test system: TK6 cells transduced with CYP2D6; details: up to 10 μM; 24 h
[14] = test system: TK6 cells transduced with CYP2A6; details: up to 10 μM; 24 h
3D HepaRG spheroids = details: 24 h; 3D cultures
[15] = test system: TK6 cells transduced with CYP2C19; details: 24 h without exogenous metabolism
[16] = test system: tester strains TA98 or TA100; details: 1 mg/plate; Aroclor 1254-induced rat liver S9; ref Zhang et al., 1983; cited from earlier work
HepG2 cells = details: 24 h without exogenous metabolism, additional 16 h
primary rat hepatocytes = details: 10 μM to 100 μM; 20-h exposure; ref Robbiano et al., 1991; cited from earlier work
[17] = test system: tester strains TA1535, TA1537, TA1538, TA92, TA98, and TA100; details: maximum concentration 1.4 μmol/plate (404 μg/plate); with and without Aroclor 1254-induced rat liver S9; ref Raisfeld-Danse and Chen, 1983; cited from earlier work
2D HepaRG cells = details: 24 h; 2D cultures
[18] = test system: CYP2C19-expressing HepG2 cells; details: 24 h without exogenous metabolism, additional 16 h
[19] = 100 μM, 4-h treatment, TK6 cells with 1% hamster liver S9
[20] = 0–200 μg/plate, S9 activation required
[21] = 10% hamster liver S9, preincubation 30 min
[22] = 10% hamster liver S9, preincubation 60 min
[23] = 10% rat liver S9, preincubation 30 min
[24] = 10% rat liver S9, preincubation 60 min
[25] = 30% hamster liver S9, preincubation 30 min
[26] = 30% hamster liver S9, preincubation 60 min
[27] = 30% rat liver S9, preincubation 30 min
[28] = 30% rat liver S9, preincubation 60 min
[29] = without S9, preincubation 30 min
[30] = without S9, preincubation 60 min
[31] = TA98, 10% hamster liver S9, preincubation 30 min
[32] = TA98, 10% hamster liver S9, preincubation 60 min
[33] = TA98, 10% rat liver S9, preincubation 30 min
[34] = TA98, 10% rat liver S9, preincubation 60 min
[35] = TA98, 30% hamster liver S9, preincubation 30 min
[36] = TA98, 30% hamster liver S9, preincubation 60 min
[37] = TA98, 30% rat liver S9, preincubation 30 min
[38] = TA98, 30% rat liver S9, preincubation 60 min
[39] = TA98, without S9, preincubation 30 min
[40] = TA98, without S9, preincubation 60 min
[41] = 50 μM, 4-h treatment, TK6 cells with 1% hamster liver S9
[42] = 200 μM, 4-h treatment, TK6 cells with 1% hamster liver S9
[43] = 300 μM, 4-h treatment, TK6 cells with 1% hamster liver S9

## O=[N+]([O-])c1cc[n+]([O-])c2ccccc12 [4NQO, reference compound]
[1]; 0.1 μg/mL (positive control)
  HPRT gene MF: 34.1^c × 10^−6
  Relative survival (%): 59.9%
  TK gene MF: 69.2^c × 10^−6

## CN(N=O)C1=Nc2ccc(Cl)cc2C(c2ccccc2)=[N+]([O-])C1 [N-nitroso chlordiazepoxide]
Hamster V79 cells
  HPRT mutations: induce concentration-dependent HPRT mutations

## CCN(CC)N=O [NDEA, N-nitrosodiethylamine, reference compound]
TK6 cells [2]
  %MN frequency with hamster liver S9: induced MN
TK6 cells [3]
  MN formation: did not induce MN formation
TK6 cells [4]
  Genotoxic or cytotoxic responses: failed to biotransform NDEA to produce any genotoxic or cytotoxic responses
TK6 cells [5]; [19]
  HPRT gene MF: 23.1^c × 10^−6
  Relative survival (%): 66.9%
  TK gene MF: 44.2^c × 10^−6

## CC(C)N(CC(O)COc1cccc2ccccc12)N=O (stereo not drawn) [NNP, N-nitroso propranolol]
[6]
  Effect on %MN and cytotoxicity: no effect
[1]; 0.0625 μM, no S9
  HPRT gene MF: 4.5^c × 10^−6
  TK gene MF: 13.2 × 10^−6
[1]; 0.125 μM, no S9
  HPRT gene MF: 6.5^c × 10^−6
  TK gene MF: 18.6^c × 10^−6
[1]; 0.5 μM, no S9
  HPRT gene MF: 23.0^c × 10^−6
  TK gene MF: 28.5^c × 10^−6
TK6 cells [7]; 4-h treatment with 2% hamster S9
  γH2A.X: concentration-dependent increase
TK6 cells [7]; 24-h treatment with 0.4% hamster S9, 10 μM (highest concentration, cytotoxic)
  γH2A.X: level decreased
TK6 cells [7]; 24-h treatment with 0.4% hamster S9, 2.5 and 5.0 μM
  γH2A.X: induced increases
TK6 cells [7]; data not shown
  Phosphorylation of histone H3 (aneugen marker): did not increase
TK6 cells [7]; without S9
  γH2A.X fluorescence: did not induce any increase
TK6 cells [7]; without S9, 100 μM
  γH2A.X compared to the vehicle control: statistically significant decrease
TA1537
  Mutagenic response in the Ames test (overall): negative
[8]
  Nuclear P53: only caused increases in nuclear P53 after 24 h
TA100; [20]
  Mutagenic response in the Ames test (overall): positive mutagenic responses
TA100; [21]
  BMD50L: 5.9 μg/plate
  BMD50U: 21.1 μg/plate
TA100; [22]
  BMD50L: 14.1 μg/plate
  BMD50U: 34.4 μg/plate
TA100; [23]
  BMD50L: Negative
TA100; [24]
  BMD50L: Negative
TA100; [25]
  BMD50L: 7.3 μg/plate
  BMD50U: 19.9 μg/plate
TA100; [26]
  BMD50L: 24.7 μg/plate
  BMD50U: 62.2 μg/plate
TA100; [27]
  BMD50L: Negative
TA100; [28]
  BMD50L: Negative
TA100; [29]
  BMD50L: Negative
TA100; [30]
  BMD50L: Negative
Tester strains
  Concentrations with considerable toxicity in the Ames test: 100–500 μg/plate
[9]
  Effect on %MN and cytotoxicity: no effect
[10]
  Micronucleus (MN) formation in hepatocytes: induced micronucleus (MN) formation
TK6 cells [2]
  %MN frequency with hamster liver S9: concentration-dependent increase
TK6 cells [2]; 4-h and 24-h treatments
  Cytotoxicity after metabolic activation by hamster liver S9: displayed cytotoxicity
TK6 cells [2]; non-CYP-transduced TK6 cells, up to 10 μM, 24 h
  Effect on %MN and cytotoxicity: no effect
TK6 cells [2]; without exogenous metabolism, up to 100 μM, 24 h
  MN formation over vehicle controls: did not result in any increase in MN formation
WP2 uvrA (pKM101)
  Mutagenic response in the Ames test (overall): negative
TA98; TA98, 0–200 μg/plate, preincubation method
  Mutagenic response in the Ames test (overall): mutagenic both in the presence and absence of S9
TA98; [31]
  BMD50L: 5.7 μg/plate
  BMD50U: 10.1 μg/plate
TA98; [32]
  BMD50L: 6.9 μg/plate
  BMD50U: 14.5 μg/plate
TA98; [33]
  BMD50L: 7.9 μg/plate
  BMD50U: 13.0 μg/plate
TA98; [34]
  BMD50L: 7.2 μg/plate
  BMD50U: 11.5 μg/plate
TA98; [35]
  BMD50L: 12.8 μg/plate
  BMD50U: 21.4 μg/plate
TA98; [36]
  BMD50L: 18.3 μg/plate
  BMD50U: 30.3 μg/plate
TA98; [37]
  BMD50L: 16.2 μg/plate
  BMD50U: 27.0 μg/plate
TA98; [38]
  BMD50L: 22.4 μg/plate
  BMD50U: 36.8 μg/plate
TA98; [39]
  BMD50L: 9.8 μg/plate
  BMD50U: 24.7 μg/plate
TA98; [40]
  BMD50L: 9.3 μg/plate
  BMD50U: 15.4 μg/plate
TA98; dissolved in acetone, methanol, or DMSO
  Solvent effect on mutagenicity in TA98: very similar mutational responses
TA1535; [20]
  Mutagenic response in the Ames test (overall): positive mutagenic responses
TA1535; [21]
  BMD50L: 0.9 μg/plate
  BMD50U: 3.4 μg/plate
TA1535; [22]
  BMD50L: 2.1 μg/plate
  BMD50U: 6.5 μg/plate
TA1535; [23]
  BMD50L: 36.1 μg/plate
  BMD50U: 108.0 μg/plate
TA1535; [24]
  BMD50L: Negative
TA1535; [25]
  BMD50L: 2.3 μg/plate
  BMD50U: 7.7 μg/plate
TA1535; [26]
  BMD50L: 2.5 μg/plate
  BMD50U: 7.1 μg/plate
TA1535; [27]
  BMD50L: Negative
TA1535; [28]
  BMD50L: Negative
TA1535; [29]
  BMD50L: Negative
TA1535; [30]
  BMD50L: Negative
[11]
  Effect on %MN and cytotoxicity: no effect
[12]
  DNA fragmentation and unscheduled DNA synthesis (UDS): concentration-dependent increase
[13]
  Effect on %MN and cytotoxicity: no effect
[14]
  Effect on %MN and cytotoxicity: no effect
3D HepaRG spheroids
  Lowest concentration that induced positive responses (Comet): 25 µM
[15]
  Lowest concentration causing a statistically significant increase in %MN: 0.0625 µM
[16]
  Mutations in the Ames test: did not induce mutations
HepG2 cells
  Cytotoxicity or MN formation: did not cause any cytotoxicity or MN formation
Primary rat hepatocytes
  DNA fragmentation and unscheduled DNA synthesis (UDS): concentration-dependent increase
TK6 cells [5]; [41]
  HPRT gene MF: 4.2^c × 10^−6
  TK gene MF: 15.5^c × 10^−6
TK6 cells [5]; [19]
  HPRT gene MF: 7.0^c × 10^−6
  TK gene MF: 21.8^c × 10^−6
TK6 cells [5]; [42]
  HPRT gene MF: 3.2^c × 10^−6
  TK gene MF: 17.8^c × 10^−6
TK6 cells [5]; [43]
  HPRT gene MF: 2.6^c × 10^−6
  TK gene MF: 16.5^c × 10^−6
TK6 cells [5]; preliminary concentration range-finding study, 1% hamster liver S9, 4 h
  Concentrations producing overt cytotoxicity: ≥ 400 µM
[17]
  Mutagenicity in the Ames test: negative
2D HepaRG cells
  Lowest concentration that induced positive responses (Comet): 50 µM
[18]
  %MN: concentration-dependent increase
  Lowest observed adverse effect level (LOAEL) for %MN: 2 µM
